Laboratory results as given in PMC5991599, “Anti‐tumor efficacy of a novel CLK inhibitor via targeting RNA splicing and MYC‐dependent vulnerability” (EMBO Molecular Medicine, 2018).
Like-named read-outs stand apart in the source and are kept apart here.

How the values were obtained:
HCT116 cells = test: Modulation of the 125 T-025-dependent skipped exons (RNA-Seq, MISO); format: cell-based; settings: |ΔPSI| > 0.4, T3 AS events from Funnell et al, 2017
Method: The RNA‐Seq was performed at Takara Bio Inc. (Shiga, Japan) or Macrogen, Inc. (Seoul, South Korea) by using HiSeq2000 or HiSeq4000 (Illumina Inc., San Diego, CA, USA). Splicing bioinformatics analysis using MISO and pathway analysis using Cytoscape (Shannon et al, 2003) were performed as previously described (Funnell et al, 2017). Briefly, the BAM alignment files produced by TopHat and the files for AS events (for hg19) provided by MISO were used as inputs. […] For clustering, we used 1,320 splicing events with ΔPSI > 0.4, the BF > 20, and SD of PSI for each splicing event > 0.2. Hierarchical clustering was performed using heatmap3 from the R package.

DYRK1B = DYRK1B (Homo sapiens, UniProt Q9Y463); design: method as in Funnell et al, 2017; settings: enzymatic assay; ref Funnell et al, 2017; read-out: IC50 (nmol/L) DYRK1B; cited from earlier work
CLK1 = CLK1 (Homo sapiens, UniProt P49759); design: method as in Funnell et al, 2017; settings: enzymatic assay; ref Funnell et al, 2017; read-out: IC50 (nmol/L) CLK1; cited from earlier work
[1] = test system: MYC-inducible SK-MEL-28 cells; test: Growth inhibition in MYC-inducible SK-MEL-28 cells; format: cell-based; settings: Homo sapiens, read-out: IC50 (nmol/L) (95% CI)
Method: To obtain an MYC‐inducible cell line, SK‐MEL‐28 cells were engineered via stable lentiviral transduction to express an empty pTRIPZ vector (Open Biosystems/GE Healthcare Dharmacon Inc., Lafayette, CO, USA) or a Tet‐inducible promoter‐driven MYC gene. Infected cells were selected with geneticin for 4 days, left to recover for 24 h, and treated with 0.5 μg/ml Dox (Sigma‐Aldrich, St. Louis, MO, USA). U2OS cells were similarly engineered to express an empty pBABE vector (Cell Biolabs, Inc., San Diego, CA, USA) or a MYC‐estrogen receptor (MYC‐ER) transgene via 3 days of puromycin selection followed by treatment with 0.5 μmol/l tamoxifen (Sigma‐Aldrich).
Silencer Select Pre-designed siRNAs purchased from Ambion (Thermo Fisher
Scientific) were used. The siRNA ID# and sequence are shown below: […]
Cell proliferation assay, Caspase-3/7 assay
Cell proliferation was measured using CellTiter-Glo luminescent cell viability
assay (Promega, Fitchburg, WI, U.S.A.). Caspase-3/7 activity was measured using
Caspase-Glo 3/7 Assay Systems (Promega). Luminescence of each well was measured
using ARVO Light (PerkinElmer Inc., Waltham, MA, U.S.A.). The IC50 value and 95%
confidential intervals were estimated using GraphPad Prism 5 (GraphPad Software,
Inc., La Jolla, CA, U.S.A.). […]

DYRK1A = target: T1, DYRK1A (Homo sapiens, UniProt Q13627); design: method as in Funnell et al, 2017; settings: enzymatic assay; ref Funnell et al, 2017; read-out: IC50 (nmol/L) DYRK1A; cited from earlier work
T1 construct: purchased DiscoverX Corporation (Fremont, CA, USA)

CLK1, sequence (P49759 whole entry): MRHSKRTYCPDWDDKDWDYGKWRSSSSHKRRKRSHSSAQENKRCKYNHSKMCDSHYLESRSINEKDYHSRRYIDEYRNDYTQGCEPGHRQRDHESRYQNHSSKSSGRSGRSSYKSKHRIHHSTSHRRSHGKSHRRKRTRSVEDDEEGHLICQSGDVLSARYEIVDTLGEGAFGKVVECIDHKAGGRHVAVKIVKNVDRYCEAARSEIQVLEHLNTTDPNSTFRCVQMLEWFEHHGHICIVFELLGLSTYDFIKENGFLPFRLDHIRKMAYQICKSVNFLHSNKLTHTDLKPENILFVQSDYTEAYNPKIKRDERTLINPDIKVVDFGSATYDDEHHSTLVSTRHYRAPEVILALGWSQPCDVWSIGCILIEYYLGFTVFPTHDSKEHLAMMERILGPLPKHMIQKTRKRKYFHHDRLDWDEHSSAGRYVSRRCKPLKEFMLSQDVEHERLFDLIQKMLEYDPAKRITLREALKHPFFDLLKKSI
DYRK1B, sequence (Q9Y463 whole entry): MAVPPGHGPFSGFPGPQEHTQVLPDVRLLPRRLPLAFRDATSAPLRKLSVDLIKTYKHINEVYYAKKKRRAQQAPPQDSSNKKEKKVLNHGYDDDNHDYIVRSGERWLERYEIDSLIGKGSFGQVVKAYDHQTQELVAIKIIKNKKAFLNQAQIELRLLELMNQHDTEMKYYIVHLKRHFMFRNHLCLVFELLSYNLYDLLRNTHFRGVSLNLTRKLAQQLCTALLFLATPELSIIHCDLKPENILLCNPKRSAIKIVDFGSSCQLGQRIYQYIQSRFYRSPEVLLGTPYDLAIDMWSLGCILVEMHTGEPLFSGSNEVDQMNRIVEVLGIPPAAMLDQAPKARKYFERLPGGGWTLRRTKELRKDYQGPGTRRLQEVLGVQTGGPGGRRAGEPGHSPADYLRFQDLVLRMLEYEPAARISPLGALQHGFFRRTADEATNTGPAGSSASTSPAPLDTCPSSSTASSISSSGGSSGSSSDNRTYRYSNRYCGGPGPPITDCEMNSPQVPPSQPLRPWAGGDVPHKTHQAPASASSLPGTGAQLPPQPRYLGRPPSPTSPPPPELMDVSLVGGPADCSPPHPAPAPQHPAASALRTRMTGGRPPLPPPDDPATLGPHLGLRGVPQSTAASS

IC50 ([1]; SK-MEL-28, 72 h, myc - Dox): 471 nmol/L
IC50 ([1]; SK-MEL-28, 72 h, vector - Dox): 459 nmol/L
IC50 ([1]; SK-MEL-28, myc + Dox (48 h pretreatment), 72 h): 294 nmol/L
IC50 ([1]; SK-MEL-28, vector + Dox (48 h pretreatment), 72 h): 471 nmol/L
SMILES: CN1CCN(C(=O)C(C)(C)c2ccc(C(=O)Nc3cn4cc(-c5ccncc5)ccc4n3)cc2)CC1 [T3]
share of the 125 T-025-dependent SEs also changed (HCT116 cells; T3 at 500 nmol/l): 58.4%
share of the 125 T-025-dependent SEs also changed (HCT116 cells; T3 at 1,000 nmol/l): 77.6%
IC50 (DYRK1B): 260 nmol/L
IC50 (CLK1): 0.63 nmol/L
IC50 (DYRK1A): 230 nmol/L
